Reference: patent publication US20230279025A1, “KRAS G12D INHIBITORS” (Mirati Therapeutics, Inc., priority 2020, published 2023)

How the values were obtained:
[1] = test system: KRas G12D-mediated phosphorylation of ERK in AGS cells (ATCC CRL-1739) expressing G12D; test: Inhibition of KRas G12D-mediated Phosphorylation of ERK in AGS cells; assay type: cell-based; conditions: Homo sapiens; phospho-ERK(Thr202/Tyr204) normalized to GAPDH, AGS cells, 3 hours; read-out: IC50
Description: Cells were plated in tissue culture treated 96 well plates at a density of 40,000 cells/well and allowed to attach for 12-14 hours. Diluted compounds were then added in a final concentration of 0.5% DMSO. After 3 hours, the medium was removed, 150 μL of 4.0% formaldehyde was added and the plates incubated at room temperature for 20 minutes. The plates were washed with PBS, and permeabilized with 150 μL of ice cold 100% methanol for 10 minutes. Non-specific antibody binding to the plates was blocked using […] Licor blocking buffer (Li-Cor Biotechnology, Lincoln Nebr.) for 1 hour at room temperature.
The amount of phospho-ERK was determined using an antibody specific for the phosphorylated form of ERK and compared to the amount of GAPDH. Primary antibodies used for the detection were added as follows: Phospho-ERK(Cell Signaling cs-9101) diluted 1:500 and GAPDH(Millipore MAB374) diluted 1:5000 in Licor block+0.05% Tween 20. The plates were incubated for 2 hours at room temperature. The plates were washed with PBS+0.05% Tween 20.
Secondary antibodies used to visualize primary antibodies were added as follows: Anti-rabbit-680 diluted 1:1000 and Anti-mouse-800 diluted 1:1000 both in Licor block+0.05% TweeN20, and were incubated for 1 hour at room temperature. The plates were washed with PBS +0.05% Tween 20. A 100 μL aliquot of PBS was added to each well and the plates were read on a Li-Cor Odyssey CLX plate reader.

KRas G12D [2] = biological target: T1, KRas G12D (Homo sapiens (Human), UniProt P01116, G12D); test: KRas G12D Binding Assay (TR-FRET displacement of Cy5 labelled tracer); conditions: GDP-loaded KRAS G12D (amino acids 1:169), 60 minute incubation at 22° C.
Description: After a 60 minute incubation at 22° C., the reaction was measured using a PerkinElmer EnVision multimode plate reader via TR-FRET dual wavelength detection, and the percent of control (POC) calculated using a ratiometric emission factor. […] The POC values were fit to a 4-parameter logistic curve and the IC50 value was determined as the concentration where the curve crosses 50 POC.
ND stands for “not determined.”
Target sequence in this assay (P01116 other isoform, or with tags, fused parts or gaps G12D): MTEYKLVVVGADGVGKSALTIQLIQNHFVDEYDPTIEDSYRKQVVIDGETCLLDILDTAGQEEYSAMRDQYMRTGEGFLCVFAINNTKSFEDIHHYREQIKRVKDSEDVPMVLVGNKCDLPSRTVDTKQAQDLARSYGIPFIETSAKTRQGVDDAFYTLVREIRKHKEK

KRas G12D [3] = biological target: T1, KRas G12D; test: KRas G12D Surface Plasmon Resonance (SPR) Binding Assay; conditions: Biacore T200, immobilized biotinylated KRAS protein, 1:1 binding model
Target sequence in this assay (P01116-2 other isoform, or with tags, fused parts or gaps G12D): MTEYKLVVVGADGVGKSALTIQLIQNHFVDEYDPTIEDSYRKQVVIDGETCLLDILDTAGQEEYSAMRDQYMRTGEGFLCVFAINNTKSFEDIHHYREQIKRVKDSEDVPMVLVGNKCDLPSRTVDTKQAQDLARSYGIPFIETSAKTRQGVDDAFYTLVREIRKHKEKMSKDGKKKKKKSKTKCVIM

[4] = Whole Blood Stability (WBS), human whole blood; assay type: in vitro ADME
Description: Compounds (2 μM) were incubated at 37° C. for 0, 10, 30, 60, and 120 min in a 1:1 (v/v) blood and PBS, pH 7.4. Diluted blood was preincubated for 15 min at 37° C. before the reactions were initiated with the dosing of the compound. At the end of incubation, the same volume of water was mixed with the spiked blood samples, and then stop solution (200 ng/mL tolbutamide and 200 ng/mL labetalol in MeOH) was added to precipitate protein. Mixed thoroughly. Samples were centrifuged, and supernatants were analyzed by LC-MS/MS.

SMILES	IC50 [1] [nM]	IC50 (KRas G12D [2]) [nM]	Kd (KRas G12D [3]) [nM]	% remaining in human whole blood ([4]; time point 0 min) [%]	% remaining in human whole blood ([4]; time point 10 min) [%]	% remaining in human whole blood ([4]; time point 30 min) [%]	% remaining in human whole blood ([4]; time point 60 min) [%]	% remaining in human whole blood ([4]; time point 120 min) [%]
Oc1cc(-c2ncc3c(N4C[C@H]5CC[C@@H](C4)N5)nc(OCCN4C[C@@H]5C[C@H]4CO5)nc3c2F)c2ccccc2c1 [Example 26, 4-(2-(2-((1S,4S)-2-oxa-5-azabicyclo[2.2.1]heptan-5-yl)ethoxy)-4-((1R,5S)-3,8-diazabicyclo[3.2.1]octan-3-yl)-8-fluoropyrido[4,3-d]pyrimidin-7-yl)naphthalen-2-ol]	4280	42.1	27.9	–	–	–	–	–
O[C@@H]1C[C@@H]2CN(c3nc(OCC45CCCN4CCC5)nc4c(F)c(-c5cccc6cccc(Cl)c56)ncc34)C[C@H]1N2 [Example 49, (1R,5R,6R)-3-(7-(8-chloronaphthalen-1-yl)-8-fluoro-2-((tetrahydro-1H-pyrrolizin-7a(5H)-yl)methoxy)pyrido[4,3-d]pyrimidin-4-yl)-3,8-diazabicyclo[3.2.1]octan-6-ol]	2120	5.9	0.4	–	–	–	–	–
CC(C)N1CCC[C@H]1COc1nc(N2C[C@H]3C[C@@H](O)[C@@H](C2)N3)c2cnc(-c3cccc4cccc(Cl)c34)c(F)c2n1 [Example 153, (1R,5R,6R)-3-(7-(8-chloronaphthalen-1-yl)-8-fluoro-2-(((S)-1-isopropylpyrrolidin-2-yl)methoxy)pyrido[4,3-d]pyrimidin-4-yl)-3,8-diazabicyclo[3.2.1]octan-6-ol]	2370	50.8	70.5	–	–	–	–	–
C#Cc1c(F)ccc2cc(O)cc(-c3ncc4c(N5C[C@H]6CC[C@@H](C5)N6C(=O)OCOC(=O)CCCCCCCCC)nc(OC[C@@]56CCCN5C[C@H](F)C6)nc4c3F)c12 [Example 471, (Decanoyloxy)methyl (1R,5S)-3-(7-(8-ethynyl-7-fluoro-3-hydroxynaphthalen-1-yl)-8-fluoro-2-(((2R,7aS)-2-fluorotetrahydro-1H-pyrrolizin-7a(5H)-yl)methoxy)pyrido[4,3-d]pyrimidin-4-yl)-3,8-diazabicyclo[3.2.1]octane-8-carboxylate]	–	–	–	100	105	77	51	31
